Columns and labels:
Assay in all cases: ITC reverse titration of protein into compound
Assay type in all cases: binding
Brd3(1) = target: T1, Brd3(1) (Homo sapiens, UniProt Q15059); details: ITC 30° C., 1% DMSO
T1 construct: Plasmids of the eight single BET bromodomain constructs Brd2(1), Brd2(2), Brd3(1), Brd3(2); His6 (N); made in house; host or cells: E. coli BL21(DE3)
Description: (§1) Results obtained were very promising, showing small shifts from 1.2° C. to a maximum of 2.6° C. for all the eight BET wild types and shifts from 5.4° C. to 13.4° C. for all the leucine to alanine mutants.
(§2) For all mutants, protein was titrated at a concentration between 150-200 μM into a solution of the compound at a concentration of 15-20 μM. In the case of the wild types, protein was titrated at a concentration of 350-400 μM into a solution of the compound between 15-20 μM. FIG. 11 is an illustrative example of the curves obtained for the Brd3(1) bromodomain construct and its respective leucine to alanine mutant titrated into compound 11. We can easily observe a hyperbolic shape for the titration of wild type Brd3(1) into compound 11, corresponding to a low affinity interaction, while for Brd3(1)*(Leu070-Ala) we can easily observe a sharp sigmoidal behaviour corresponding to a high affinity interaction. Furthermore, there is a clear difference in the ΔH produced by each interaction. (ΔH=−22 kcal/mol vs. mutant compared to −7 kcal/mol vs. wild type).
(§3) ITC experiments were carried out on a ITC200 instrument from MicroCal™ Experiments were conducted at 3 different temperatures 15° C., 25° C. and 30° C., while stirring at 1000 rpm. Buffers of proteins, peptide and compounds were matched to 20 mM HEPES pH 7.5 at 25° C. and 100 mM NaCl. Frozen protein was buffer exchanged as described for the DSF experiments. Each titration comprised 1 initial injection of 0.4 μl lasting 0.8 s, followed by 19 injections of 2 μl lasting 4 s each at 2 min intervals. The initial injection was discarded during data analysis. Standard and reverse titrations were conducted depending on the binding partners.
(§4) Reverse titrations were conducted to test the binding of the known ligands and the novel chemical probes to the wild types and the mutants. Experiments were carried out either at 25° C. or 30° C. For strong binders, a concentration of 150-200 μM of the protein was injected into a solution of 15-20 μM compound. […] In cases where the compound was solubilized in dimethyl sulfoxide, DMSO concentration was adjusted to 1% both in the syringe and in the cell.
(§5) All the data was fitted to a single binding site model using the Microcal LLC ITC200 Origin software provided by the manufacturer to yield enthalpies of binding (ΔH) and binding constants (Kas). Further thermodynamic parameters were calculated from these values (changes in entropy ΔS, changes in free energy AG and dissociation constants (Kds)).

Brd3(1)*(Leu070-Ala) = target: T2, Brd3(1)*(Leu070-Ala) (Homo sapiens, UniProt Q15059, L70A); details: for Selectivity factor Kd WT/Kd Leu/Ala: 30° C.
T2 construct: Plasmids of the eight single BET bromodomain constructs Brd2(1), Brd2(2), Brd3(1), Brd3(2), Brd4(1), Brd4(2), Brdt(1) and Brdt(2); His6 (N); made in house; host or cells: E. coli BL21(DE3)
T2 sequence (Q15059 34-140 L70A): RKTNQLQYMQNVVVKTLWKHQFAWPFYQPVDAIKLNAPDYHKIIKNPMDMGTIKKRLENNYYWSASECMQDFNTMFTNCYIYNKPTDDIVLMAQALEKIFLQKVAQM
Description: as §1, §2, §3, §4, §5

brd3(2)L344A = target: T3, brd3(2)L344A (Homo sapiens, UniProt Q15059, L345A); details: 30° C.
T3 construct: Plasmids of the eight single BET bromodomain constructs Brd2(1), Brd2(2), Brd3(1), Brd3(2), Brd4(1), Brd4(2), Brdt(1) and Brdt(2); His6 (N); made in house; host or cells: E. coli BL21(DE3)
T3 sequence (Q15059 306-415 L345A): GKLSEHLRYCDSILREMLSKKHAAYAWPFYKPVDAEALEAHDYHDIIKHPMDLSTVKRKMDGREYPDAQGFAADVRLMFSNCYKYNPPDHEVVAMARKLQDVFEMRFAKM
Description: as §1, §2, §3, §4, §5

brd4(1)L094A = target: T4, brd4(1)L094A (Homo sapiens, UniProt O60885, L94A); details: 30° C.
T4 construct: Plasmids of the eight single BET bromodomain constructs Brd2(1), Brd2(2), Brd3(1), Brd3(2), Brd4(1), Brd4(2), Brdt(1) and Brdt(2); His6 (N); made in house; host or cells: E. coli BL21(DE3)
Description: as §1, §2, §3, §4, §5

brd4(2)L387A = target: T5, brd4(2)L387A (Homo sapiens, UniProt O60885, L387A); details: 30° C.
T5 construct: Plasmids of the eight single BET bromodomain constructs Brd2(1), Brd2(2), Brd3(1), Brd3(2), Brd4(1), Brd4(2), Brdt(1) and Brdt(2); His6 (N); made in house; host or cells: E. coli BL21(DE3)
Description: as §1, §2, §3, §4, §5

brdt(1)L063A = target: T6, brdt(1)L063A (Homo sapiens, UniProt Q58F21, L63A); details: 30° C.
T6 construct: Plasmids of the eight single BET bromodomain constructs Brd2(1), Brd2(2), Brd3(1), Brd3(2), Brd4(1), Brd4(2), Brdt(1) and Brdt(2); His6 (N); made in house; host or cells: E. coli BL21(DE3)
Description: as §1, §2, §3, §4, §5

brdt(2)L306A = target: T7, brdt(2)L306A (Homo sapiens, UniProt Q58F21, L306A); details: 30° C.
T7 construct: Plasmids of the eight single BET bromodomain constructs Brd2(1), Brd2(2), Brd3(1), Brd3(2), Brd4(1), Brd4(2), Brdt(1) and Brdt(2); His6 (N); made in house; host or cells: E. coli BL21(DE3)
Description: as §1, §2, §3, §4, §5

T1 sequence (Q15059 34-140 limits assumed): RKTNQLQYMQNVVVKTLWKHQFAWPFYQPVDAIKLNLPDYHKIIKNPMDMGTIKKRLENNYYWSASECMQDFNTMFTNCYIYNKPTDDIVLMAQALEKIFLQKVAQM

## CC[C@@H](C(=O)OC)[C@@H]1N=C(c2ccc(Cl)cc2)c2cc(OC)ccc2-n2c(C)nnc21 (racemic) [Compound 11, (+−)-methyl (R)-2-((S)-6-(4-chlorophenyl)-8-methoxy-1-methyl-4H-benzo[f][1,2,4]triazolo[4,3-a][1,4]diazepin-4-yl)butanoate]
Brd3(1)
  ΔH wild type Brd3(1): -7 kcal/mol
Brd3(1)*(Leu070-Ala); ITC 30° C., 1% DMSO
  ΔH Brd3(1)*(Leu070-Ala): -22 kcal/mol
Brd3(1)*(Leu070-Ala); brd3(1)L070A vs WT brd2(1)
  Selectivity factor Kd WT/Kd Leu/Ala: 244
Brd3(1)*(Leu070-Ala); brd3(1)L070A vs WT brd2(2)
  Selectivity factor Kd WT/Kd Leu/Ala: 469
Brd3(1)*(Leu070-Ala); brd3(1)L070A vs WT brd3(1)
  Selectivity factor Kd WT/Kd Leu/Ala: 190
Brd3(1)*(Leu070-Ala); brd3(1)L070A vs WT brd3(2)
  Selectivity factor Kd WT/Kd Leu/Ala: 202
Brd3(1)*(Leu070-Ala); brd3(1)L070A vs WT brd4(1)
  Selectivity factor Kd WT/Kd Leu/Ala: 346
Brd3(1)*(Leu070-Ala); brd3(1)L070A vs WT brd4(2)
  Selectivity factor Kd WT/Kd Leu/Ala: 273
Brd3(1)*(Leu070-Ala); brd3(1)L070A vs WT brdt(1)
  Selectivity factor Kd WT/Kd Leu/Ala: 233
Brd3(1)*(Leu070-Ala); brd3(1)L070A vs WT brdt(2)
  Selectivity factor Kd WT/Kd Leu/Ala: 332
brd3(2)L344A; brd3(2)L344A vs WT brd2(1)
  Selectivity factor Kd WT/Kd Leu/Ala: 135
brd3(2)L344A; brd3(2)L344A vs WT brd2(2)
  Selectivity factor Kd WT/Kd Leu/Ala: 261
brd3(2)L344A; brd3(2)L344A vs WT brd3(1)
  Selectivity factor Kd WT/Kd Leu/Ala: 106
brd3(2)L344A; brd3(2)L344A vs WT brd3(2)
  Selectivity factor Kd WT/Kd Leu/Ala: 112
brd3(2)L344A; brd3(2)L344A vs WT brd4(1)
  Selectivity factor Kd WT/Kd Leu/Ala: 192
brd3(2)L344A; brd3(2)L344A vs WT brd4(2)
  Selectivity factor Kd WT/Kd Leu/Ala: 152
brd3(2)L344A; brd3(2)L344A vs WT brdt(1)
  Selectivity factor Kd WT/Kd Leu/Ala: 130
brd3(2)L344A; brd3(2)L344A vs WT brdt(2)
  Selectivity factor Kd WT/Kd Leu/Ala: 185
brd4(1)L094A; brd4(1)L094A vs WT brd2(1)
  Selectivity factor Kd WT/Kd Leu/Ala: 206
brd4(1)L094A; brd4(1)L094A vs WT brd2(2)
  Selectivity factor Kd WT/Kd Leu/Ala: 396
brd4(1)L094A; brd4(1)L094A vs WT brd3(1)
  Selectivity factor Kd WT/Kd Leu/Ala: 160
brd4(1)L094A; brd4(1)L094A vs WT brd3(2)
  Selectivity factor Kd WT/Kd Leu/Ala: 170
brd4(1)L094A; brd4(1)L094A vs WT brd4(1)
  Selectivity factor Kd WT/Kd Leu/Ala: 292
brd4(1)L094A; brd4(1)L094A vs WT brd4(2)
  Selectivity factor Kd WT/Kd Leu/Ala: 231
brd4(1)L094A; brd4(1)L094A vs WT brdt(1)
  Selectivity factor Kd WT/Kd Leu/Ala: 197
brd4(1)L094A; brd4(1)L094A vs WT brdt(2)
  Selectivity factor Kd WT/Kd Leu/Ala: 281
brd4(2)L387A; brd4(2)L387A vs WT brd2(1)
  Selectivity factor Kd WT/Kd Leu/Ala: 45
brd4(2)L387A; brd4(2)L387A vs WT brd2(2)
  Selectivity factor Kd WT/Kd Leu/Ala: 88
brd4(2)L387A; brd4(2)L387A vs WT brd3(2)
  Selectivity factor Kd WT/Kd Leu/Ala: 38
brd4(2)L387A; brd4(2)L387A vs WT brd4(1)
  Selectivity factor Kd WT/Kd Leu/Ala: 65
brd4(2)L387A; brd4(2)L387A vs WT brd4(2)
  Selectivity factor Kd WT/Kd Leu/Ala: 51
brd4(2)L387A; brd4(2)L387A vs WT brdt(1)
  Selectivity factor Kd WT/Kd Leu/Ala: 44
brd4(2)L387A; brd4(2)L387A vs WT brdt(2)
  Selectivity factor Kd WT/Kd Leu/Ala: 62
brdt(1)L063A; brdt(1)L063A vs WT brd2(1)
  Selectivity factor Kd WT/Kd Leu/Ala: 48
brdt(1)L063A; brdt(1)L063A vs WT brd2(2)
  Selectivity factor Kd WT/Kd Leu/Ala: 92
brdt(1)L063A; brdt(1)L063A vs WT brd3(1)
  Selectivity factor Kd WT/Kd Leu/Ala: 37
brdt(1)L063A; brdt(1)L063A vs WT brd3(2)
  Selectivity factor Kd WT/Kd Leu/Ala: 40
brdt(1)L063A; brdt(1)L063A vs WT brd4(1)
  Selectivity factor Kd WT/Kd Leu/Ala: 67
brdt(1)L063A; brdt(1)L063A vs WT brd4(2)
  Selectivity factor Kd WT/Kd Leu/Ala: 54
brdt(1)L063A; brdt(1)L063A vs WT brdt(1)
  Selectivity factor Kd WT/Kd Leu/Ala: 46
brdt(1)L063A; brdt(1)L063A vs WT brdt(2)
  Selectivity factor Kd WT/Kd Leu/Ala: 65
brdt(2)L306A; brdt(2)L306A vs WT brd2(1)
  Selectivity factor Kd WT/Kd Leu/Ala: 63
brdt(2)L306A; brdt(2)L306A vs WT brd2(2)
  Selectivity factor Kd WT/Kd Leu/Ala: 122
brdt(2)L306A; brdt(2)L306A vs WT brd3(1)
  Selectivity factor Kd WT/Kd Leu/Ala: 49
brdt(2)L306A; brdt(2)L306A vs WT brd3(2)
  Selectivity factor Kd WT/Kd Leu/Ala: 52
brdt(2)L306A; brdt(2)L306A vs WT brd4(1)
  Selectivity factor Kd WT/Kd Leu/Ala: 90
brdt(2)L306A; brdt(2)L306A vs WT brd4(2)
  Selectivity factor Kd WT/Kd Leu/Ala: 71
brdt(2)L306A; brdt(2)L306A vs WT brdt(1)
  Selectivity factor Kd WT/Kd Leu/Ala: 60
brdt(2)L306A; brdt(2)L306A vs WT brdt(2)
  Selectivity factor Kd WT/Kd Leu/Ala: 86

From patent US20170122958A1, “Enzymes Functional Probes” (University of Dundee, priority 2013, published 2017)
